Source: PubChem BioAssay (NCI)
Where “and” joins values, the source holds several entries; their conditions need not be identical. Equal values may be shown once.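 Values below derive from 48-hour exposures of cells grown in 96-well plates, with endpoints linearly interpolated between the two concentrations bracketing the appropriate inhibition level. GI50 is the concentration that inhibits growth by half. TGI is the concentration that stops growth completely.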

How the values were obtained:
Assay in all cases: DTP human tumour cell line panel, 48 h
HOP-62 NSCLC = test system: HOP-62 NSCLC
HCC-2998 colon = test system: HCC-2998 colon
ACHN renal = test system: ACHN renal
SF-295 CNS = test system: SF-295 CNS
HT29 colon = test system: HT29 colon
SNB-75 CNS = test system: SNB-75 CNS
MALME-3M melanoma = test system: MALME-3M melanoma
COLO 205 colon = test system: COLO 205 colon
SK-OV-3 ovarian = test system: SK-OV-3 ovarian
786-0 renal = test system: 786-0 renal

SMILES | GI50 (HOP-62 NSCLC) | TGI (HOP-62 NSCLC) | GI50 (HCC-2998 colon) | TGI (HCC-2998 colon) | GI50 (ACHN renal) | TGI (ACHN renal) | GI50 (SF-295 CNS) | TGI (SF-295 CNS) | GI50 (HT29 colon) | TGI (HT29 colon) | GI50 (SNB-75 CNS) | TGI (SNB-75 CNS) | GI50 (MALME-3M melanoma) | TGI (MALME-3M melanoma) | GI50 (COLO 205 colon) | TGI (COLO 205 colon) | GI50 (SK-OV-3 ovarian) | TGI (SK-OV-3 ovarian) | GI50 (786-0 renal) | TGI (786-0 renal)
Cc1ccc(Nc2cc(C)nc(NCCCNc3ccnc4cc(Cl)ccc34)n2)cc1 | 1.38 µM | 2.78 µM | 1.38 µM | 2.8 µM | 1.54 µM | 2.91 µM | 1.51 µM | 2.92 µM | 481 nM | 2.06 µM | 1300 nM | 2.56 µM | 1820 nM | 3.74 µM | 1360 nM | 2.77 µM | 1.57 µM | 3.35 µM | 1730 nM | 3.31 µM
FC(F)(F)c1cccc2c(SCCc3n[nH]c(=S)o3)ccnc12 | 94.2 µM | > 100 µM | 37.9 µM | > 100 µM | 60.2 µM | > 100 µM | 48.7 µM | > 100 µM | 64200 nM | > 100 µM | 36300 nM | > 100 µM | 44500 nM | > 100 µM | 64800 nM | > 100 µM | 92.7 µM | > 100 µM | > 100000 nM | > 100 µM
Cc1cnccc1N=Nc1ccc(N(C)C)cc1 |  | > 100 µM |  | 49.6 µM |  | > 100 µM |  | 57.5 µM |  | 53.9 µM |  | 46.2 µM |  | > 100 µM |  | 26.1 µM |  | 48.2 µM |  | > 100 µM
N#Cc1ccc(Oc2cccc(Oc3ccccc3)c2)cc1C#N | > 100 µM | > 100 µM | > 100 µM | > 100 µM |  | > 100 µM |  | > 100 µM | > 100000 nM | > 100 µM |  | 31.6 µM | > 100000 nM | > 100 µM | > 100000 nM | > 100 µM | > 100 µM | > 100 µM | > 100000 nM | > 100 µM
CN1C[C@@H]2Cn3c(c(C4=C(c5cn(C)c6ccccc56)C(=O)NC4=O)c4ccccc43)C[C@H]2C1 | 4.29 µM and 4.01 µM | 9.32 µM and 8.42 µM | 4.59 µM and 4.4 µM | 8.71 µM and 9.65 µM | 4.16 µM and 3.51 µM | 12.6 µM and 8.98 µM | 3.42 µM and 3.76 µM | 7.15 µM and 8.89 µM | 3870 nM and 3220 nM | 10.8 µM and 11.6 µM | 441 nM and 259 nM | 3.79 µM and 3.6 µM | 3780 nM and 3890 nM | 7.36 µM and 8.03 µM | 3090 nM and 1960 nM | 6.7 µM and 5.72 µM | 4.56 µM and 4.06 µM | 11.8 µM and 11.9 µM | 4750 nM and 4570 nM | 9.33 µM and 8.9 µM
COc1cccc(CCC(=O)c2cc3c(N)c(C(=O)Nc4cccc(Cl)c4C)sc3nc2C)c1 | 1.1 µM | > 100 µM | 2.18 µM | > 50.8 µM | 0.743 µM | > 100 µM | 0.407 µM | 20.1 µM | 338 nM |  | 193 nM | 1.54 µM | 469 nM | > 100 µM | 661 nM | > 45.9 µM | 1.53 µM | > 75.6 µM | 530 nM | > 100 µM
COC(=O)[C@H](C)NC(=O)[C@@H](OC)[C@@H]1Cc2cc3cc(OC4CC(OC5CC(O)C(O)C(C)O5)C(O)C(C)O4)c(C)c(O)c3c(O)c2C(=O)[C@H]1OC1CC(OC2CC(OC3CC(C)(O)C(O)C(C)O3)C(O)C(C)O2)C(O)C(C)O1 (stereo not given in full) | 0.0774 µM | > 50 µM | 0.16 µM | 2.08 µM | 0.119 µM | 2.23 µM | 0.0885 µM | > 50 µM | 117 nM | > 50 µM | 91.1 nM | 0.774 µM | 29.6 nM | 0.315 µM | 93.4 nM | 1.09 µM | 0.359 µM | > 50 µM | 148 nM | 9.16 µM
O=C(CCSc1ccnc2c(C(F)(F)F)cccc12)N/N=C/c1cc(Cl)c(Cl)cc1Cl | 19.8 µM | 35.8 µM | 34.6 µM | > 100 µM | 19.7 µM | 35.5 µM | 26.4 µM | 62.3 µM | 17800 nM | 33.9 µM | 20000 nM | 46.1 µM | 50100 nM | > 100 µM | 24600 nM | 67.7 µM | 23.7 µM | 54.7 µM | 20300 nM | 35.1 µM
CCNNC(=O)[C@@H]1[C@H](c2cc(OC)c(OC)c(OC)c2)c2cc3c(cc2[C@H](O)[C@H]1CO)OCO3 | 0.561 µM | > 100 µM | 0.374 µM | > 22.2 µM | 0.755 µM | > 100 µM | 0.32 µM | > 100 µM | 351 nM | 13 µM | 442 nM | > 100 µM | > 20500 nM | > 100 µM | 266 nM | 0.646 µM | 0.29 µM | 1.08 µM | 495 nM | > 100 µM
CCc1ccc2nccc(NCCCN(C)C)c2c1[N+](=O)[O-] |  | > 100 µM |  | > 100 µM |  | > 100 µM |  | > 100 µM |  | > 100 µM |  | > 100 µM |  | > 100 µM |  | 94.1 µM |  | > 100 µM |  | > 100 µM
CCOC(=O)C(C(=O)OCC)C(=O)c1ccccc1C(=O)c1ccccc1 |  | > 100 µM |  | > 100 µM |  | > 100 µM |  | > 100 µM |  | > 100 µM |  | > 100 µM |  | > 100 µM |  | > 100 µM |  | > 100 µM |  | > 100 µM
CN(CC(=O)O)Cc1oc(CO)cc(=O)c1O |  | > 100 µM |  | > 100 µM |  | > 100 µM |  | > 100 µM |  | > 100 µM |  | > 100 µM |  | > 100 µM |  | > 100 µM |  | > 100 µM |  | > 100 µM
Nc1ccc(C(OC(=O)c2cc3ccccc3c(Cc3c(O)c(C(=O)OC(c4ccc(N)cc4)(c4ccc(N)cc4)c4ccc(N)cc4)cc4ccccc34)c2O)(c2ccc(N)cc2)c2ccc(N)cc2)cc1 | 0.331 µM | 14.1 µM | 1.83 µM | 15.5 µM | 2.49 µM | 54 µM | 0.475 µM | > 100 µM | 1790 nM | 11.6 µM | 497 nM | 11.7 µM | 1940 nM | 20.1 µM | 1210 nM | 3.15 µM | 2.87 µM | 14.5 µM | 1760 nM | 20.2 µM
COc1cc(C2CC(=O)Nc3c2ccc2ccccc32)cc(Br)c1OC (stereo not given) | 0.753 µM | > 100 µM | 0.84 µM | > 29.9 µM | 0.798 µM | > 100 µM | 0.316 µM |  | 370 nM | 18.2 µM | 224 nM | 2.43 µM | 582 nM | > 70.6 µM | 369 nM | 1.35 µM | 0.507 µM | > 22.7 µM | 569 nM | > 39.3 µM
O=S(=O)(NC1=NCCN1C(=S)SN1CCn2c1nsc2=S)c1ccccc1Cl | 17.4 µM | 33.9 µM | 15.9 µM | 29.5 µM | 24.5 µM | > 100 µM | 21.4 µM | 61 µM | 15400 nM | > 100 µM | 13300 nM | 55.6 µM | 12500 nM | 67.5 µM | 15100 nM | 55 µM | 57 µM | > 100 µM | 16700 nM | 39.1 µM
Nc1c(C(=O)N/N=C/c2ccc(-c3cc(Cl)c(Cl)cc3Cl)o2)cnn1-c1ccnc2c(C(F)(F)F)cccc12 | 5.24 µM | > 100 µM | 3.64 µM | > 100 µM | 3.55 µM | > 100 µM | 3.27 µM | > 100 µM | 2730 nM | 28 µM | 4010 nM | 53 µM | 2660 nM | 10.6 µM | 2570 nM | 5.78 µM | 4.81 µM | 73 µM | 3960 nM | > 100 µM
COc1c(Cl)ccc2c(-c3nc4cc(Cl)c(F)cc4s3)cc(=O)oc12 | 6.26 µM | 20.7 µM | 38.5 µM | > 100 µM | 4 µM | 17.2 µM | 10.4 µM | 52 µM | 2760 nM | 6.54 µM | 1560 nM | 3.28 µM | 2110 nM | 4.73 µM | 10100 nM | 38.3 µM | 7.03 µM | 19.9 µM | 2640 nM | 5.65 µM
